Reference: patent US6054437A, “Method for inducing death of neoplastic cells using piperazine derivatives” (Hitachi Chemical Research Center, Inc., priority 1997, dated 2000)
Entries after “also recorded” stand apart in the source; their conditions may differ. Where a name gives a salt, the structure may show the parent alone.

What was measured:
[1] = tested on: PC-3 (prostate); assay: Cancer cell survival assay, PC-3; format: cell-based, human; settings: PC-3, seven days, alone
Method: (§1) Cell survival was assayed in cultured tumor cells. From 500-1000 cells per well were plated in 24-welled culture dishes and exposed to drug for seven days. After drug exposure, a computerized cell imaging technique was utilized to ascertain the number of viable cells remaining in each culture. From the data, survival curves were plotted and a ED50 (drug concentration that permits 50% cell survival) were calculated.
(§2) The cancer cell survival assay is an important additional in vitro assay to assess the anti-neoplastic activity of compounds as the cells are given a prolonged exposure (seven days) to the drug. FIGS. 9-16 show the effect of increasing the dose of NCO-700 on the survival of a number of cancer cell lines. […] In the figures, the vertical axis is the object area, which is the number of surviving cancer cells calculated by a computer.

[2] = tested on: prostate cancer cell lines; assay: Cancer cell death assay (LDH release), prostate lines; format: cell-based, human; settings: compound alone, 24 hours
Method: (§3) 1. Cancer Cell Death Assay
(§4) Cell death was measured quantitatively by the release of a marker intracellular enzyme, lactate dehydrogenase (LDH), from damaged or killed cells. LDH released into the extracellular fluid, was measured 24 hours after drug exposure to cancer cells and the enzyme activity was determined by the method of Decker et al. (J. Immunolog Methods 15:61-99, 1988).
(§5) All cell lines used in the present study were obtained from the American Type Tissue Culture Laboratory and cultured according to their specifications. All were human cancer lines unless otherwise noted. The following cell lines and their tissue of origin used in our studies were:
(§6) The first assays performed measured the anti-neoplastic activity of NCO-700, alone, in cell death assays of a wide variety of human cancer cells. The results of these experiments are shown in FIGS. 1-6, where a dose-response curve of NCO-700 versus % LDH release is plotted, with higher values of LDH released indicating greater anti-neoplastic activity (apoptosis).
(§7) In FIG. 8, a dose-response curve is shown of the effect of TOP-008 on the killing of breast, prostate and colon cell lines.

[3] = tested on: breast cancer cell lines; assay: Cancer cell death assay (LDH release), breast lines; format: cell-based, human; settings: compound alone, 24 hours
Method: as §3, §4, §5, §6, §7

[4] = tested on: PC-3 (prostate tumor cell line); assay: Apoptosis induced DNA fragmentation (agarose gel); format: cell-based, human; settings: PC-3, 50 μM, 48 hours
Method: PC-3, a prostate tumor cell line, was treated with 25 μM TOP-008, 50 μM NCO-700, or water for 48 hours. The DNA from each sample was purified by phenol extraction, and the fragmentation was resolved on an agarose gel.

[5] = tested on: DU-145 (prostate); assay: Cancer cell survival assay, DU-145; format: cell-based, human; settings: DU-145, seven days, alone
Method: as §1, §2

[6] = tested on: ovarian tumor cells; assay: Human tumor biopsy assay, ovarian tumor; format: cell-based; settings: 20 μM NCO-700 and 0.4 mg/ml vinblastine, 1 hour
Method: (§8) 4. Human Tumor Biopsy Assays
(§9) where the effect of NCO-700 to enhance killing, by either vinblastine or adriamycin, of cancer cells cultured directly from patient's tumors (Von Hoff et al., Cancer Res. 43:1926-1931, 1983).
(§10) For the tumor biopsy assay, primary cell cultures were propagated directly from tumor specimens removed from patients. The cells were grown in suspension culture, treated with adriamycin or vinblastine plus NCO-700, and plated onto soft agar and incubated for two weeks before cell survival was determined.
(§11) In a final series of experiments, the effect of NCO-700 on survival of cells cultured directly from biopsied patient tumors was performed. This technique, referred to as a human tumor cloning system, was developed by Von Hoff and associates (Von Hoff et al., Cancer Res. 43:1926-1931, 1983) and was used clinically to predict the course of chemotherapy for these patients. In this method, tumor biopsies were separated into cell suspensions and treated for 1 hour with either 0.4 mg/ml vinblastine (VLB) or 0.5 mg/ml adriamycin (ADR) plus or minus 20 μM NCO-700. The cell suspensions were washed after one hour of incubation and plated with soft agar. After 14 days of incubation at 37°, the percent of colonies surviving was scored. […] In particular, the survival of tumor cells decreased to approximately 1/2 to 1/3 after exposure to NCO-700 and adriamycin. […]

[7] = tested on: LS-174T (colon); assay: Cancer cell survival assay, LS-174T; format: cell-based, human; settings: seven days, alone
Method: as §1, §2

[8] = tested on: breast cancer tumor cells from patients; assay: Human tumor biopsy assay (tumor cloning system), breast tumors; format: cell-based; settings: 20 μM NCO-700, two breast tumors
Method: as §8, §9, §10, §11

[9] = tested on: human tumor cells; assay: Human tumor biopsy assay, tumors in general; format: cell-based; settings: 20 μM NCO-700 plus vinblastine or adriamycin
Method: as §8, §9, §10, §11

[10] = tested on: melanoma cell lines B16F10 and SK-Mel-2; assay: Cancer cell death assay (LDH release), melanoma lines; format: cell-based, mouse (B16F10); human (SK-Mel-2); settings: compound alone, 24 hours
Method: FIG. 2 is a graph showing the relationship between LDH released and the concentration of NCO-700 in cancer cell death assays of melanoma cell lines B16F10 (mouse line) and SK-Mel-2 (human line).
as §3, §4, §5, §6

[11] = tested on: human cancer cells; assay: Cancer cell death assays against a number of human cancer cells; format: cell-based; settings: compounds alone; analogs at 25 μM (FIGS. 20-25)
Method: as §4
As described in Experiment 1, three different assays were performed to measure anti-neoplastic activity of compounds.
The first assays performed measured the anti-neoplastic activity of NCO-700 analogs in cell death assays against a number of human cancer cells. The results of these experiments are shown in FIGS. 20-25, where a bar graph indicates the activity of a particular analog as measured by the % LDH released, with higher values of LDH released indicating greater anti-neoplastic activity (apoptosis). All analogs were tested at a concentration of 25 μM.

With `CCOC(=O)[C@@H]1O[C@H]1C(=O)N[C@@H](CC(C)C)C(=O)N1CCN(Cc2ccc(OC)c(OC)c2OC)CC1` [NCO-700, Bis[ethyl (2R,3R)-3-[(S)-3-methyl-1-[4-(2,3,4-trimethoxyphenylmethyl)piperazin-1-ylcarbonyl]butylcarbamoyl]oxirane-2-carboxylate] Sulfate] the “anti-neoplastic activity (cell survival)” value [1] was “significant anti-neoplastic activity”, the “anti-neoplastic activity (LDH release)” value [2] was “the cell lines that were testosterone receptor negative (and more malignant) responded very well” and the “anti-neoplastic activity (LDH release)” value [3] was “the cells that were responding to NCO-700 were estrogen receptor negative”. For the same molecule, the DNA fragmentation [4] was “significant DNA fragmentation”, the “anti-neoplastic activity (cell survival)” value [5] was “significant anti-neoplastic activity” and the “survival of tumor cells decreased to (fraction)” value [6] was “approximately 1/3”. The “anti-neoplastic activity (cell survival)” value [7] was “significant anti-neoplastic activity”, the “sensitization of tumor cells to adriamycin and vinblastine” value [8] was “significantly sensitized these tumor cells to the actions of adriamycin (ADR) and vinblastine (VLB)” and the “activity in inhibiting survival / sensitizing human tumor cells” value [9] was “significant activity in inhibiting the survival of certain human tumor cells; also recorded: excellent activity in sensitizing to anticancer drugs”. For the same molecule, the “response of all other tumors” value [9] was “varying degrees of positive response”, the “anti-neoplastic activity (LDH release)” value [10] was “all cells lines showed sensitivity to NCO-700” and the “anti-neoplastic activity, selectivity among human cancer cells” value [11] was “highly effective as an anti-neoplastic agent versus selective tumors”.
